According to paper PMC8915830 (Proceedings of the National Academy of Sciences of the …, 2022):

Columns and labels:
hGHSR1aWT [1] = biological target: T1, hGHSR1aWT (Homo sapiens, UniProt Q92847); test: iCa2+ in WT or Gαq/11 KO HEK293/S cells; format: cell-based; conditions: 10 μM ligand; versus WT cells
hGHSR1aWT [2] = biological target: T1, hGHSR1aWT; test: Gαq/11-dependent intracellular Ca2+ mobilization; format: cell-based; conditions: for activity of the pure/resynthesized molecule: screening aliquots contained oxidated impurities

T1 sequence (Q92847 whole entry): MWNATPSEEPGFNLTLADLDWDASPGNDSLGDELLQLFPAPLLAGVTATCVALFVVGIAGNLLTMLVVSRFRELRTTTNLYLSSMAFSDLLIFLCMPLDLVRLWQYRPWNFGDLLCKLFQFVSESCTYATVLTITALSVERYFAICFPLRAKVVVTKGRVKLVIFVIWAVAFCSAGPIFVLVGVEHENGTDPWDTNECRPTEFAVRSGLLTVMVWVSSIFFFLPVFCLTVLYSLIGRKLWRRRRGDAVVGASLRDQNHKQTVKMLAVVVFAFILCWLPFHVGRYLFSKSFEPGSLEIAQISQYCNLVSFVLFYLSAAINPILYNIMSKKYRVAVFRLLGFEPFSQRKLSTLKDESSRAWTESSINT

| activity of the pure/resynthesized molecule (hGHSR1aWT [2]) | other results | SMILES |
| --- | --- | --- |
|  | ligand-induced iCa2+ in Gαq/11 KO cells (hGHSR1aWT [1]): abolished | C[C@@H](O)CNC(C)(C)CC(=O)N[C@@H]1CCc2ccccc2N(Cc2ccc(-c3ccccc3-c3nn[nH]n3)cc2)C1=O [L585] |
| could not be confirmed |  | CCOc1ccc(C2c3c(oc4ccc(C)cc4c3=O)C(=O)N2CCCN(C)C)cc1OC (stereo not shown) [N1956] |
| could not be confirmed |  | COc1ccc(C2c3c(oc4ccc(Cl)cc4c3=O)C(=O)N2CCCN(C)C)cc1OC (stereo not shown) [N6164] |
|  | inhibition of iCa2+ evoked by EC80 N8279, ghrelin or L585 (hGHSR1aWT [2]; 30 min antagonist pretreatment): competitively inhibited | Cc1nc2ccc(Oc3ccc(F)cc3)cc2c(=O)n1C[C@H]1CCCN(C(C)C)C1 [YIL781] |
